This data set is described as follows: Phase 2 study preliminary plasma pharmacokinetics in PA/MMA subjects. Type of data set: in vivo, human. Particulars: dose range of 1 mg/kg to 30 mg/kg, once or twice daily. The protocol:
Part A is the dose escalation phase to assess the initial safety and to confirm the pharmacologic activity of Compound 5 in subjects with PA and MMA. Screening for eligibility took place within 28 days of enrollment. All subjects were initially evaluated during a 4-week run-in period followed by within-subject dose escalation of 3 doses (1, 3, and 10 mg/kg QD of sodium 2,2-dimethylbutanoate); dose escalation interval of 4 weeks) to check for improvement in disease-related biomarkers.
Plasma will be analyzed by liquid chromatography with tandem mass spectrometry (LC-MS/MS) with a lower limit of quantitation of 0.100 μg/mL. Samples collected for analyses of Compound 5 (plasma/serum/whole blood)] concentration may also be used to evaluate safety or efficacy aspects related to concerns arising during or after the study.
Preliminary pharmacokinetics (PK) data from the first two subjects of Study described in Examples 7-8 was evaluated at 1 mg/kg, 3 mg/kg and 10 mg/kg of Compound 5 dosed once daily (QD).

`CCC(C)(C)C(=O)[O-].[Na+]` [Compound 5A, 2,2-dimethylbutyric acid sodium salt]: the “Blood plasma concentrations versus dose” value is “dose proportional”.

These data come from US20240366543A1, “METHODS OF TREATING METHYLMALONIC ACIDEMIA AND PROPIONIC ACIDEMIA” (HemoShear Therapeutics, Inc., priority 2021, published 2024).
